Results published in patent US11406613B2, “Treatment of osteoarthritis” (ST GEORGE'S HOSPITAL MEDICAL SCHOOL, priority 2016, dated 2022).
Read-outs that look alike come from different tables or passages of the source.

Columns and labels:
primary hand OA = conditions: Basoki et al., Ann Rheum Dis 2015; cited from earlier work
hand OA participants [1] = conditions: for AUSCAN pain score 90 days (95% CI) / AUSCAN pain score Baseline (95% CI): per-protocol population; for AUSCAN pain score 90 days (95% CI) / AUSCAN pain score Baseline (95% CI) / AUSCAN function 90 days (95% CI) / AUSCAN stiffness 90 days (95% CI) / AUSCAN function Baseline (95% CI) / AUSCAN stiffness Baseline (95% CI): imputed data; for AUSCAN pain score 90 days (95% CI): pregabalin up to 300 mg, duloxetine up to 60 mg daily; for AUSCAN pain score Baseline (95% CI): 5 questions 0-100 mm, total of 500; for AUSCAN function 90 days (95% CI) / AUSCAN stiffness 90 days (95% CI) / AUSCAN function Baseline (95% CI) / AUSCAN stiffness Baseline (95% CI) / AUSCAN function Mean diff (95% CI) / AUSCAN stiffness Mean diff (95% CI) / AUSCAN pain score Mean diff (95% CI): per-protocol; for AUSCAN stiffness Baseline (95% CI): one question 0-100 mm; for AUSCAN function Mean diff (95% CI) / AUSCAN stiffness Mean diff (95% CI): baseline to 90 days; for AUSCAN pain score Mean diff (95% CI): change between baseline and 90 days (13 weeks), primary endpoint
From the text: Inclusion criteria: Participants were eligible for screening if they were aged 40-75 years, had hand OA diagnosed by ACR criteria (Altman et al., Arthritis and Rheumatism 1990; 33(11): 1601-10) confirmed by a rheumatologist and experiencing pain of at least 5 or above on a numerical rating scale (NRS) of 0-10. […] All participants underwent baseline hand radiography to confirm radiographic evidence of OA. The radiographic findings were used to confirm radiographic evidence of OA from ACR criteria of at least 3 joints affected, with a Kellgren-Lawrence grade (Kellgren et al., Ann Rheum Dis 1957; 16(4): 494-502) of 2 or above in at least 3 affected joints. Radiographic scoring was performed after a training session independently by 2 researchers.
Participants were issued with a diary card with their medication to be completed for VAS pain rating on a daily basis. […] The protocol recommended that participants should record use of rescue medication (paracetamol up to 4 g daily) in their diary card.
The primary end point was the Australian and Canadian Hand Osteoarthritis Index (AUSCAN) rating scale 3.1 with sub-scales for pain, which is a validated measure of hand pain, stiffness and function in clinical trials of hand OA (Bellamy et al., Arthritis Care Res (Hoboken) 2015; 67(7): 972-80). Based on IMMPACT guidelines for pain trials (Dworkin et al., Pain 2005; 113: 9-19), primary end-point data for the AUSCAN pain sub-scale was collected. The primary endpoint was change in AUSCAN pain between baseline and 13 weeks. Patient-reported symptoms were recorded in three domains and participants asked to record their scores based on symptoms ‘in the last 48 hours’. Pain reporting consists of 5 questions, rated at 0-100 mm each, for pain in the hands at rest, gripping objects, turning and squeezing objects, scoring out of a total of 500.
For secondary outcome data, the AUSCAN stiffness and function scales were recorded; there was one question for stiffness symptoms (0-100 mm) and 3 questions testing function (0-100 mm each). Additional secondary outcomes included the Numerical Rating Scale (NRS) pain rating 0-10, the Hospital Anxiety and Depression Scale (HADS) (Bjelland et al., Journal of Psychosomatic Research. 2002; 52(2): 69-77) and pain sensitisation measures in the three treatment groups at baseline and at week 13. Operational definitions for all end points, including time points for comparisons, were specified prospectively in the trial protocol.
(§1) The AUSCAN pain, stiffness and function outcomes are presented as means and 95% confidence intervals. Analysed between group were comparisons by the Mann Whitney U test. Baseline characteristics in each group are shown by mean values and standard deviation. […] IBM SPSS Statistics 21.0 was used for all analyses and graphs were plotted using Graphpad Prism version 6.

hand OA participants [2] = conditions: per-protocol; for Hospital Anxiety and Depression Scale Depression Mean diff (95% CI): baseline to 90 days; for Hospital Anxiety and Depression Scale Anxiety Baseline (95% CI): listed as head as printed; for Hospital Anxiety and Depression Scale Anxiety: listed as head prints only 'Anxiety'
From the text: Additional secondary outcomes included the Numerical Rating Scale (NRS) pain rating 0-10, the Hospital Anxiety and Depression Scale (HADS) (Bjelland et al., Journal of Psychosomatic Research. 2002; 52(2): 69-77) and pain sensitisation measures in the three treatment groups at baseline and at week 13.

hand OA participants [3] = conditions: per-protocol; for Numerical Rating Scale (NRS) 90 days (95% CI) / Numerical Rating Scale (NRS) Baseline (95% CI): imputed data; for Numerical Rating Scale (NRS) Baseline (95% CI): scale 0-10; for Numerical Rating Scale (NRS) Mean diff (95% CI): baseline to 90 days
From the text: (§2) Participants were issued with a diary card with their medication to be completed for VAS pain rating on a daily basis. […] The protocol recommended that participants should record use of rescue medication (paracetamol up to 4 g daily) in their diary card. […] All other care was at the discretion of the treating physicians.
Additional secondary outcomes included the Numerical Rating Scale (NRS) pain rating 0-10, the Hospital Anxiety and Depression Scale (HADS) (Bjelland et al., Journal of Psychosomatic Research. 2002; 52(2): 69-77) and pain sensitisation measures in the three treatment groups at baseline and at week 13. Operational definitions for all end points, including time points for comparisons, were specified prospectively in the trial protocol.
as §1

hand OA participants [4] = conditions: for Side effects: Total (adverse events recorded): all systems, whole treatment group; for Participants discontinuing treatment / withdrawing because of (serious) adverse events: number of participants
Method: The safety and tolerability of these agents used in this context was secondarily explored, and pain sensitisation measures were assessed.
as §2

hand OA participants [5] = conditions: for Consumption of rescue medication (total): paracetamol up to 4 g daily as rescue medication, per-protocol population; for Average use of paracetamol as rescue medication compared with placebo: result in words
From the text: as §2

knee OA = conditions: Chappell et al., Pain 2009; cited from earlier work
[6] = number of adverse events recorded in treatment group

SMILES | AUSCAN pain score 90 days (95% CI) (hand OA participants [1]) | AUSCAN pain score Baseline (95% CI) (hand OA participants [1]) | AUSCAN function 90 days (95% CI) (hand OA participants [1]) | AUSCAN stiffness 90 days (95% CI) (hand OA participants [1]) | AUSCAN function Baseline (95% CI) (hand OA participants [1]) | AUSCAN stiffness Baseline (95% CI) (hand OA participants [1]) | AUSCAN function Mean diff (95% CI) (hand OA participants [1]) | AUSCAN stiffness Mean diff (95% CI) (hand OA participants [1]) | AUSCAN pain score Mean diff (95% CI) (hand OA participants [1]) | Hospital Anxiety and Depression Scale Depression 90 days (95% CI) (hand OA participants [2]) | Hospital Anxiety and Depression Scale Depression Baseline (95% CI) (hand OA participants [2]) | Hospital Anxiety and Depression Scale Depression Mean diff (95% CI) (hand OA participants [2]) | Hospital Anxiety and Depression Scale Anxiety Baseline (95% CI) (hand OA participants [2]) | Hospital Anxiety and Depression Scale Anxiety (hand OA participants [2]) | Numerical Rating Scale (NRS) 90 days (95% CI) (hand OA participants [3]) | Numerical Rating Scale (NRS) Baseline (95% CI) (hand OA participants [3]) | Numerical Rating Scale (NRS) Mean diff (95% CI) (hand OA participants [3]) | Side effects: Total (adverse events recorded) (hand OA participants [4]) | Side effects: Cardiovascular (hand OA participants [4]; [6]) | Side effects: Digestive (hand OA participants [4]; [6]) | also measured
CCN(CCO)CCCC(C)Nc1ccnc2cc(Cl)ccc12 (stereo not shown) [hydroxychloroquine] |  |  |  |  |  |  |  |  |  |  |  |  |  |  |  |  |  |  |  |  | Pain reduction compared to placebo in primary hand OA (primary hand OA): did not reduce pain compared to placebo
CC(C)C[C@H](CN)CC(=O)O [Pregabalin, (3S)-3-(aminomethyl)-5-methylhexanoic acid] | 176.5 (123.9 to 229.1) | 308.5 (262.6 to 354.5) | 362.2 (281.7 to 442.7) | 36.5 (23.0 to 49.9) | 608.5 (541.3 to 675.7) | 59.9 (51.8 to 67.9) | −246.3 (−341.7 to −151.0) | −23.4 (−35.7 to −11.1) | −132.0 (−181.1 to −82.9) | 4.1 (2.6 to 5.6) | 5.1 (3.3 to 6.9) | −1.1 (−2.1 to −0.02) | 5.2 (2.9 to 7.5) | 6.1 (3.8 to 8.3) | 3.4 (2.4 to 4.4) | 6.1 (5.4 to 6.7) | −2.7 (−3.5 to −1.9) | 55 | 3 | 7 | AUSCAN pain score Mean diff (95% CI) (hand OA participants [1]; listed as pregabalin): −132.0; Dose giving maximum analgesic and functional improvement effect (AUSCAN trajectory, FIG. 3) (hand OA participants [1]; result in words): maximum analgesic and functional improvement effect at the higher dose of 300 mg; Side effects: Genitourinary (hand OA participants [4]; [6]): 1; Side effects: Mental (hand OA participants [4]; [6]): 9; Side effects: Nervous system, Dizziness (hand OA participants [4]; [6]): 7; Side effects: Nervous system, Dry mouth (hand OA participants [4]; [6]): 6; Side effects: Nervous system, Headaches (hand OA participants [4]; [6]): 3; Side effects: Nervous system, Loss of balance (hand OA participants [4]; [6]): 7; Side effects: Nervous system, Sleepiness (hand OA participants [4]; [6]): 5; Side effects: Ophthalmological (hand OA participants [4]; [6]): 4; Side effects: Respiratory (hand OA participants [4]; [6]): 2; Participants discontinuing treatment / withdrawing because of (serious) adverse events (hand OA participants [4]): 4; Consumption of rescue medication (total) (hand OA participants [5]): 9 days; Average use of paracetamol as rescue medication compared with placebo (hand OA participants [5]): much lower
CNCC[C@H](Oc1cccc2ccccc12)c1cccs1 [Duloxetine] | 248.1 (162.3 to 333.9) | 310.6 (254.3 to 367.0) | 496.4 (342.4 to 650.5) | 48.3 (29.9 to 66.6) | 598.3 (481.2 to 715.3) | 61.8 (45.8 to 77.8) | −101.9 (−248.4 to −44.8) | −13.5 (26.5 to −0.6) | −62.5 (−141.6 to 16.6) | 3.8 (1.9 to 5.7) | 4.1 (2.3 to 5.9) | −0.3 (−1.8 to 1.2) | 4.3 (2.2 to 6.3) | 5.6 (3.6 to 7.5) | 4.3 (2.6 to 5.9) | 6.6 (5.7 to 7.4) | −2.3 (−3.8 to −0.9) | 57 | 2 | 18 | Significant improvement in AUSCAN pain, stiffness or function compared with placebo (hand OA participants [1]; baseline to 13 weeks, result in words): Significant improvement in AUSCAN pain, stiffness or function were not observed; AUSCAN pain score Mean diff (95% CI) (hand OA participants [1]; listed as duloxetine): −62.5; Side effects: ENT (hand OA participants [4]; [6]): 2; Side effects: Mental (hand OA participants [4]; [6]): 9; Side effects: Nervous system, Dizziness (hand OA participants [4]; [6]): 3; Side effects: Nervous system, Dry mouth (hand OA participants [4]; [6]): 6; Side effects: Nervous system, Headaches (hand OA participants [4]; [6]): 8; Side effects: Nervous system, Sleepiness (hand OA participants [4]; [6]): 3; Side effects: Ophthalmological (hand OA participants [4]; [6]): 2; Side effects: Respiratory (hand OA participants [4]; [6]): 3; Side effects: Skin (hand OA participants [4]; [6]): 1; Participants discontinuing treatment / withdrawing because of (serious) adverse events (hand OA participants [4]): 2; Efficacy for pain outcomes in knee OA (knee OA): shown efficacy for pain outcomes in knee OA; Consumption of rescue medication (total) (hand OA participants [5]): 5 days; Average use of paracetamol as rescue medication compared with placebo (hand OA participants [5]): much lower
